# Reference: paper PMC5666424, “Marine-Derived 2-Aminoimidazolone Alkaloids. Leucettamine B-Related Polyandrocarpamines Inhibit Mammalian and Protozoan DYRK & CLK Kinases” (Marine Drugs, 2017)
# Columns and labels:
# Assay in all cases: KinomeScan
# Format in all cases: binding
# Conditions in all cases: 1 μM
# LOK = target: T1, LOK (Homo sapiens, UniProt O94804)
# T1 construct: purchased DiscoverX (KINOMEscan)
# DMPK2 = target: T2, DMPK2 (Homo sapiens, UniProt Q6DT37)
# T2 construct: purchased DiscoverX (KINOMEscan)
# DAPK1 = target: T3, DAPK1 (Homo sapiens, UniProt P53355)
# T3 construct: purchased DiscoverX (KINOMEscan)
# TGFBR2 = target: T4, TGFBR2 (Homo sapiens, UniProt P37173)
# T4 construct: purchased DiscoverX (KINOMEscan)
# IKK-epsilon = target: T5, IKK-epsilon (Homo sapiens, UniProt Q14164)
# T5 construct: purchased DiscoverX (KINOMEscan)
# CSF1R = target: T6, CSF1R (Homo sapiens, UniProt P07333)
# T6 construct: purchased DiscoverX (KINOMEscan)
# KIT(A829P) = target: T7, KIT(A829P) (Homo sapiens, UniProt P10721, A829P)
# T7 construct: purchased DiscoverX (KINOMEscan)
# MERTK = target: T8, MERTK (Homo sapiens, UniProt Q12866)
# T8 construct: purchased DiscoverX (KINOMEscan)
# DYRK1B = DYRK1B (Homo sapiens, UniProt Q9Y463)
# JNK2 = target: T9, JNK2 (Homo sapiens, UniProt P45984)
# T9 construct: purchased DiscoverX (KINOMEscan)
# MST1R = target: T10, MST1R (Homo sapiens, UniProt Q04912)
# T10 construct: purchased DiscoverX (KINOMEscan)
# ACVR1B = target: T11, ACVR1B (Homo sapiens, UniProt P36896)
# T11 construct: purchased DiscoverX (KINOMEscan)
# CAMK4 = target: T12, CAMK4 (Homo sapiens, UniProt Q16566)
# T12 construct: purchased DiscoverX (KINOMEscan)
# BRAF(V600E) = target: T13, BRAF(V600E) (Homo sapiens, UniProt P15056, V600E)
# T13 construct: purchased DiscoverX (KINOMEscan)
# BMPR2 = target: T14, BMPR2 (Homo sapiens, UniProt Q13873)
# T14 construct: purchased DiscoverX (KINOMEscan)
# MEK3 = target: T15, MEK3 (Homo sapiens, UniProt P46734)
# T15 construct: purchased DiscoverX (KINOMEscan)
# [1] = target: T16, ABL1(Q252H)-nonphosphorylated (Homo sapiens, UniProt P00519, Q252H)
# T16 construct: purchased DiscoverX (KINOMEscan)
# MARK2 = target: T17, MARK2 (Homo sapiens, UniProt Q7KZI7)
# T17 construct: purchased DiscoverX (KINOMEscan)
# ERK2 = target: T18, ERK2 (Homo sapiens, UniProt P28482)
# T18 construct: purchased DiscoverX (KINOMEscan)
# ITK = target: T19, ITK (Homo sapiens, UniProt Q08881)
# T19 construct: purchased DiscoverX (KINOMEscan)
# BMPR1A = target: T20, BMPR1A (Homo sapiens, UniProt P36894)
# T20 construct: purchased DiscoverX (KINOMEscan)
# SYK = target: T21, SYK (Homo sapiens, UniProt P43405)
# T21 construct: purchased DiscoverX (KINOMEscan)
# TNK1 = target: T22, TNK1 (Homo sapiens, UniProt Q13470)
# T22 construct: purchased DiscoverX (KINOMEscan)
# LRRK2 = target: T23, LRRK2 (Homo sapiens, UniProt Q5S007)
# T23 construct: purchased DiscoverX (KINOMEscan)
# HIPK3 = target: T24, HIPK3 (Homo sapiens, UniProt Q9H422)
# T24 construct: purchased DiscoverX (KINOMEscan)
# DRAK1 = target: T25, DRAK1 (Homo sapiens, UniProt Q9UEE5)
# T25 construct: purchased DiscoverX (KINOMEscan)
# DDR1 = target: T26, DDR1 (Homo sapiens, UniProt Q08345)
# T26 construct: purchased DiscoverX (KINOMEscan)
# DAPK3 = target: T27, DAPK3 (Homo sapiens, UniProt O43293)
# T27 construct: purchased DiscoverX (KINOMEscan)
# MST3 = target: T28, MST3 (Homo sapiens, UniProt Q9Y6E0)
# T28 construct: purchased DiscoverX (KINOMEscan)
# MAP3K4 = target: T29, MAP3K4 (Homo sapiens, UniProt Q9Y6R4)
# T29 construct: purchased DiscoverX (KINOMEscan)
# FAK = target: T30, FAK (Homo sapiens, UniProt Q05397)
# T30 construct: purchased DiscoverX (KINOMEscan)
# ARK5 = target: T31, ARK5 (Homo sapiens, UniProt O60285)
# T31 construct: purchased DiscoverX (KINOMEscan)
# HPK1 = target: T32, HPK1 (Homo sapiens, UniProt Q92918)
# T32 construct: purchased DiscoverX (KINOMEscan)
# MYLK = target: T33, MYLK (Homo sapiens, UniProt Q15746)
# T33 construct: purchased DiscoverX (KINOMEscan)
# CSNK2A2 = target: T34, CSNK2A2 (Homo sapiens, UniProt P19784)
# T34 construct: purchased DiscoverX (KINOMEscan)
# FGFR4 = target: T35, FGFR4 (Homo sapiens, UniProt P22455)
# T35 construct: purchased DiscoverX (KINOMEscan)
# JNK1 = target: T36, JNK1 (Homo sapiens, UniProt P45983)
# T36 construct: purchased DiscoverX (KINOMEscan)
# T12 sequence (Q16566 whole entry): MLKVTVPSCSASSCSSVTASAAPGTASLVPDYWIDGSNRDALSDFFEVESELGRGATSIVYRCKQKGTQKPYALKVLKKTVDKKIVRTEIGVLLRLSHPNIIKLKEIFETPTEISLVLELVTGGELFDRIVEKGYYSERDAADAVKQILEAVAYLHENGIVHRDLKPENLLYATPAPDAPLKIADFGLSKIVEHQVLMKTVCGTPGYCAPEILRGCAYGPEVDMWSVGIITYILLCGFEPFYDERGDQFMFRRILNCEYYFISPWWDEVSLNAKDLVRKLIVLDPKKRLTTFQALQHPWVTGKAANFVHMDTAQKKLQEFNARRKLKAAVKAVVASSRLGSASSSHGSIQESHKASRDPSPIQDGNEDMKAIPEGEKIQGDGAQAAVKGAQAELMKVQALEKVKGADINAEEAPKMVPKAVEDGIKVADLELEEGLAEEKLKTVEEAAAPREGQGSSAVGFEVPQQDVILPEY
# T24 sequence (Q9H422 whole entry): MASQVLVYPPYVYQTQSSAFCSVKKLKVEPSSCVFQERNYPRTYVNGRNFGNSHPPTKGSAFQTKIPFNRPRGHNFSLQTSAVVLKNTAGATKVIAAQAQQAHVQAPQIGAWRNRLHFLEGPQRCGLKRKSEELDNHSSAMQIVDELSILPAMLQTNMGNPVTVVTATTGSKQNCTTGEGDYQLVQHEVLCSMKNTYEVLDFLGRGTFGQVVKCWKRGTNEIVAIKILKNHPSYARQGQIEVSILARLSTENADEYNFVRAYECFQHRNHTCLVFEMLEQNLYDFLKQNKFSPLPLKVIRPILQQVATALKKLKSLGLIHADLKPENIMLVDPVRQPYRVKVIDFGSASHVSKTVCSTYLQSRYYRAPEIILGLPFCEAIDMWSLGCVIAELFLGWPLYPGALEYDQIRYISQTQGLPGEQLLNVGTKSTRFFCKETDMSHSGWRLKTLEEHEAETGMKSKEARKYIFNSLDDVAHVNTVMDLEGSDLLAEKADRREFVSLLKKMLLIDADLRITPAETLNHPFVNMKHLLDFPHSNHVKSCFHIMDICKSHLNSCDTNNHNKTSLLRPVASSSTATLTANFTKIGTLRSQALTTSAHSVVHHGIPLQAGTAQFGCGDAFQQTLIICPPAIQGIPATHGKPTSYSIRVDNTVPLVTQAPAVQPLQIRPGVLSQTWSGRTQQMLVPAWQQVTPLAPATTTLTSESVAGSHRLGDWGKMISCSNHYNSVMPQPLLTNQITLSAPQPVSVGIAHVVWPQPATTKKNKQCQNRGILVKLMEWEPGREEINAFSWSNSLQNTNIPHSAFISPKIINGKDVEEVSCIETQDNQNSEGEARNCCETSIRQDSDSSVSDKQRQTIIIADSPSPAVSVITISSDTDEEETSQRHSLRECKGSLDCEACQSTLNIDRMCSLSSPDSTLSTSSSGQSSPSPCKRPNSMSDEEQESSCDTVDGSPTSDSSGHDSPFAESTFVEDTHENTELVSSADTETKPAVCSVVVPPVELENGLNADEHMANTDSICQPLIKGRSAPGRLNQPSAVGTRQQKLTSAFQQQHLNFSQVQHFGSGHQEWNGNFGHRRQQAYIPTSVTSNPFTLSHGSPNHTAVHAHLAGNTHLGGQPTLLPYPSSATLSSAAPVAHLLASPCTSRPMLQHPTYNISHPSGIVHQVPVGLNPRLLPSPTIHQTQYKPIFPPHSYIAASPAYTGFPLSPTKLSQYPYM
# T27 sequence (O43293 whole entry): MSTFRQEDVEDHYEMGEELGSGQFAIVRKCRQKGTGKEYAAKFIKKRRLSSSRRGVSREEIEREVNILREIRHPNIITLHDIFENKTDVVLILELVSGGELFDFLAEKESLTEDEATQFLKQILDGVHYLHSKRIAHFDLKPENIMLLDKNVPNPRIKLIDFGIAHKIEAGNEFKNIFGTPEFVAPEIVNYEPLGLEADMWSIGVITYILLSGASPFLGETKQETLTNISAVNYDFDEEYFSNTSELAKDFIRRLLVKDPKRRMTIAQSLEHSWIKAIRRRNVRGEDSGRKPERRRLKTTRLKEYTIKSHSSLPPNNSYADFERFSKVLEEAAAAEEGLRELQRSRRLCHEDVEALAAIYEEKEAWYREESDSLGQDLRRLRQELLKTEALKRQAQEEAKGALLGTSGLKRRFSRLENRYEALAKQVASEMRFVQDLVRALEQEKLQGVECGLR
# T2 sequence (Q6DT37 whole entry): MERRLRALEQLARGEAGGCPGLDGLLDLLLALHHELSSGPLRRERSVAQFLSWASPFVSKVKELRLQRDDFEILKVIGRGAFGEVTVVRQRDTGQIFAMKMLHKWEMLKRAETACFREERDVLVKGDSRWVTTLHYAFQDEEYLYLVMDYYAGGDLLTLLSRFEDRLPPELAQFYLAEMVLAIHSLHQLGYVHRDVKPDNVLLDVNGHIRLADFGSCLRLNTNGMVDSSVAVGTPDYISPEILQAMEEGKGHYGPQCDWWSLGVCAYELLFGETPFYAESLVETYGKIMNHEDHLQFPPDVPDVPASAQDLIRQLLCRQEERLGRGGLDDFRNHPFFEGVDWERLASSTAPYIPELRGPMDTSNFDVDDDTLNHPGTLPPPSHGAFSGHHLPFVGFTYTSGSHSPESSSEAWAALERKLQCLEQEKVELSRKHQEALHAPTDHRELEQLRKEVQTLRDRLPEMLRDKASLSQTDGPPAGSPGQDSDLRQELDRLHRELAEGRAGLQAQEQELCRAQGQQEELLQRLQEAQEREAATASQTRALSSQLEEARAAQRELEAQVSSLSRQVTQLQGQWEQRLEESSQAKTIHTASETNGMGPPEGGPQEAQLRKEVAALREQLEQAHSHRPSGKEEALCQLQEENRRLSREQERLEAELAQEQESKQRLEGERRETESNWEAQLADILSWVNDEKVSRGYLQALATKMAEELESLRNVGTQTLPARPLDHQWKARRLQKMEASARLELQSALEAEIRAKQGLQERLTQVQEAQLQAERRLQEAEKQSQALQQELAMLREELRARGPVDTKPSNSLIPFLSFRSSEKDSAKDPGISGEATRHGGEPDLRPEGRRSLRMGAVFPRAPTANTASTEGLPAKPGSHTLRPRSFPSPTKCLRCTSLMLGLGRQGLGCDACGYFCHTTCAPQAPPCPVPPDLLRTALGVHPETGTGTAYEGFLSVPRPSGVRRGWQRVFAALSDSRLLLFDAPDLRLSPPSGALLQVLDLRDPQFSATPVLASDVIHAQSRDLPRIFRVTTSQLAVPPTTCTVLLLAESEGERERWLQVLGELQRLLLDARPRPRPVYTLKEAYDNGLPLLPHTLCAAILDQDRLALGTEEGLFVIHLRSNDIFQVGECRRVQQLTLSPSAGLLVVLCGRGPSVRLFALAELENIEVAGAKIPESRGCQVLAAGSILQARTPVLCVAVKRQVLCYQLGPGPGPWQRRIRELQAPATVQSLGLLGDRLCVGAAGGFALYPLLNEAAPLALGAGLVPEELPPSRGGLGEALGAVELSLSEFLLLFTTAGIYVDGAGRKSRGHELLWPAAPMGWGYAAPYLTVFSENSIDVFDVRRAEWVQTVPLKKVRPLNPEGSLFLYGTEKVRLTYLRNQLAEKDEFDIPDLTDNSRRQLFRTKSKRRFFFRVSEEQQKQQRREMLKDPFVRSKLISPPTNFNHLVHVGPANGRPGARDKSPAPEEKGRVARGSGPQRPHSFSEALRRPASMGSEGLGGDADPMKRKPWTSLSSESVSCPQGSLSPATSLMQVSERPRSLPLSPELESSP
# T8 sequence (Q12866 21-999): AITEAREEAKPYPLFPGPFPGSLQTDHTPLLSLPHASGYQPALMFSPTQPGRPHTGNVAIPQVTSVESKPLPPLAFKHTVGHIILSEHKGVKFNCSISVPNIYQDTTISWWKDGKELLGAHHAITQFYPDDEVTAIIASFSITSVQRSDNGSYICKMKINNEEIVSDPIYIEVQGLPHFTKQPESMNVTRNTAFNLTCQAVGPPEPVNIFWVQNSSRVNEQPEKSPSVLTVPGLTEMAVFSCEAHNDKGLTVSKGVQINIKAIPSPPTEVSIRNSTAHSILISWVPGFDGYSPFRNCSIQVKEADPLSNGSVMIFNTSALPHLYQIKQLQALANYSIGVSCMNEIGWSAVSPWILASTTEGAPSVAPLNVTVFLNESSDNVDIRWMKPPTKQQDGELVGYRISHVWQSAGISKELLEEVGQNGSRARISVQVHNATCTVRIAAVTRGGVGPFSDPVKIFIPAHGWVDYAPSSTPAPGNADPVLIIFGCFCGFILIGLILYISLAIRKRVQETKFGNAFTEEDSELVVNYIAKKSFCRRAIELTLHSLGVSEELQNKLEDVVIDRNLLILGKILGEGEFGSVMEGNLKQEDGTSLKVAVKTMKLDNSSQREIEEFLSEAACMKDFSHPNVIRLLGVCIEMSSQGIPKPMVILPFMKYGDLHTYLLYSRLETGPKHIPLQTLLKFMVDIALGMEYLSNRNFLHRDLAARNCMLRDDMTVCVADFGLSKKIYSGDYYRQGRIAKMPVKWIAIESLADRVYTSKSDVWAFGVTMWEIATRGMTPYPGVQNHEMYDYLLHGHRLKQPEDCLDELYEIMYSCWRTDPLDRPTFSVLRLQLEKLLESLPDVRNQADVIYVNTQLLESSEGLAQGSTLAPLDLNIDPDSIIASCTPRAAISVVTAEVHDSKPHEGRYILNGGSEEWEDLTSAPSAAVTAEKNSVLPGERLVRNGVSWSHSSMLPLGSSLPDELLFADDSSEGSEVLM
# T25 sequence (Q9UEE5 whole entry): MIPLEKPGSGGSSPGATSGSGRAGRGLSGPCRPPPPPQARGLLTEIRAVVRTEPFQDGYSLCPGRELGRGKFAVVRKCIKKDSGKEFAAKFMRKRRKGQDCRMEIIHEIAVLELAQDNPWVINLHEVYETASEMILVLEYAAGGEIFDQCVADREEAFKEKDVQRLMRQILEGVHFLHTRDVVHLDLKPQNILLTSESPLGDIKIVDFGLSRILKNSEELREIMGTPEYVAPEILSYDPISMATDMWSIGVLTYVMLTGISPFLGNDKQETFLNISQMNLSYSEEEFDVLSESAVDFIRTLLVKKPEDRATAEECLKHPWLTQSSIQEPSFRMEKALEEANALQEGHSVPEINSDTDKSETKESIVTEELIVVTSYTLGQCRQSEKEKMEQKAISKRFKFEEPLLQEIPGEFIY
smiles,measurement,setting,value
COc1cc(/C=C2\N=C(N)NC2=O)ccc1O [Polyandrocarpamine A],Score,LOK,100
same,Score,DMPK2,99
same,Score,DAPK1,79
same,Score,TGFBR2,100
same,Score,IKK-epsilon,89
same,Score,CSF1R,87
same,Score,KIT(A829P),91
same,Score,MERTK,100
same,Score,DYRK1B,25
same,Score,JNK2,100
same,Score,MST1R,100
same,Score,ACVR1B,81
same,Score,CAMK4,94
same,Score,BRAF(V600E),96
same,Score,BMPR2,95
same,Score,MEK3,98
same,Score,[1],100
same,Score,MARK2,100
same,Score,ERK2,100
same,Score,ITK,94
same,Score,BMPR1A,100
same,Score,SYK,100
same,Score,TNK1,100
same,Score,LRRK2,100
same,Score,HIPK3,19
same,Score,DRAK1,42
same,Score,DDR1,100
same,Score,DAPK3,50
same,Score,MST3,100
same,Score,MAP3K4,100
same,Score,FAK,94
same,Score,ARK5,71
same,Score,HPK1,100
same,Score,MYLK,98
same,Score,CSNK2A2,26
same,Score,FGFR4,98
same,Score,JNK1,100
